Results on one compound are retold here after patent US20230293530A1, “AGENTS FOR SENSITIZING SOLID TUMORS TO TREATMENT” (Yeda Research and Development Co. Ltd., priority 2020, published 2023).

The test system of assay [1] is 4T1 cells. The assay can be described thus: Cell viability by crystal violet staining, 4T1. The assay is classed as cell-based, murine. To be noted: 300 µM mizoribine, 24 h. Here is the method:
A) Purine/pyrimidine ratio is increased upon nutrient deprivation in […] colon cancer cells. MC38 cells were grown in either regular medium or in medium without glucose for 24 h. Nucleotide levels were measured by LC-MS. Purine/pyrimidine ratio was calculated by dividing (AMP+GMP) AUC by (UMP+CMP) AUC. B) 4T1 cells with and without shASS1 were grown in glucose free medium either supplemented or not with 10 mM L-Name for 48 hrs. Nucleotide levels were measured by LC-MS. Purine/pyrimidine ratio was calculated by dividing the sum levels of (AMP+GMP) by the sum levels of (UMP+CMP+TMP). […] MC38 cells were grown either with or without 300 µM mizoribine for 24 h. Nucleotide levels were measured by LC-MS. […] 4T1 (left panel) and MC38 cells (right panel) were grown for 24 h with or without 300 µM mizoribine. Cell viability was measured by crystal violet staining. Each experiment was conducted with biological and technical replicates and repeated at least three times. All error bars represent SER. * P<0.05, ** denotes P<0.01, ***P<0.001.

Assay [2] deals with MC38 cells. The assay can be described thus: Nucleotide levels by LC-MS in MC38 cells with or without mizoribine. To be noted: 300 µM mizoribine, 24 h. The assay is classed as cell-based, mouse. As for the experimental part:
A) Purine/pyrimidine ratio is increased upon nutrient deprivation in […] colon cancer cells. MC38 cells were grown in either regular medium or in medium without glucose for 24 h. Nucleotide levels were measured by LC-MS. Purine/pyrimidine ratio was calculated by dividing (AMP+GMP) AUC by (UMP+CMP) AUC. B) 4T1 cells with and without shASS1 were grown in glucose free medium either supplemented or not with 10 mM L-Name for 48 hrs. Nucleotide levels were measured by LC-MS. Purine/pyrimidine ratio was calculated by dividing the sum levels of (AMP+GMP) by the sum levels of (UMP+CMP+TMP). […] MC38 cells were grown either with or without 300 µM mizoribine for 24 h. Nucleotide levels were measured by LC-MS. […] Cell viability was measured by crystal violet staining. […]
LC-MS analysis: The LC-MS/MS instrument consisting of an Acquity I-class UPLC system (Waters) and Xevo TQ-S triple quadrupole mass spectrometer (Waters), equipped with an electrospray ion source, and operated in positive ion mode was used for analysis of nucleoside monophosphates. […] Nucleotide concentration was calculated using a standard curve of the relevant nucleotide concentration in each sample. Standard curves included increasing concentration of all measured nucleotides ranging from 0-10 ug/ml that were positioned at the beginning and at the end of each run. […]

Molecules are shown by their SMILES.

Turning to `NC(=O)c1ncn([C@@H]2O[C@H](CO)[C@@H](O)[C@H]2O)c1O` [Mizoribine, mizoribine], in assay [1], the “cancer cell proliferation (cell viability, crystal violet)” value is “restricts ASS1-overexpressing cancer cell proliferation”. Moreover, the “purine/pyrimidine ratio (AMP+GMP) AUC/(UMP+CMP) AUC” value in assay [2] is given as “decreased purine/pyrimidine ratio”.
